Results from ChEMBL document CHEMBL3632585, “Probing the S2' Subsite of the Anthrax Toxin Lethal Factor Using Novel N-Alkylated Hydroxamates” (J Med Chem, 2015).

Experiments:
[1] = biological target: T1, Lethal factor (Bacillus anthracis, UniProt P15917); assay: Inhibition of Bacillus anthracis Lethal factor after 10 mins by mobility shift protease assay using 8 uM FITC as substrate
T1 sequence (P15917 whole entry): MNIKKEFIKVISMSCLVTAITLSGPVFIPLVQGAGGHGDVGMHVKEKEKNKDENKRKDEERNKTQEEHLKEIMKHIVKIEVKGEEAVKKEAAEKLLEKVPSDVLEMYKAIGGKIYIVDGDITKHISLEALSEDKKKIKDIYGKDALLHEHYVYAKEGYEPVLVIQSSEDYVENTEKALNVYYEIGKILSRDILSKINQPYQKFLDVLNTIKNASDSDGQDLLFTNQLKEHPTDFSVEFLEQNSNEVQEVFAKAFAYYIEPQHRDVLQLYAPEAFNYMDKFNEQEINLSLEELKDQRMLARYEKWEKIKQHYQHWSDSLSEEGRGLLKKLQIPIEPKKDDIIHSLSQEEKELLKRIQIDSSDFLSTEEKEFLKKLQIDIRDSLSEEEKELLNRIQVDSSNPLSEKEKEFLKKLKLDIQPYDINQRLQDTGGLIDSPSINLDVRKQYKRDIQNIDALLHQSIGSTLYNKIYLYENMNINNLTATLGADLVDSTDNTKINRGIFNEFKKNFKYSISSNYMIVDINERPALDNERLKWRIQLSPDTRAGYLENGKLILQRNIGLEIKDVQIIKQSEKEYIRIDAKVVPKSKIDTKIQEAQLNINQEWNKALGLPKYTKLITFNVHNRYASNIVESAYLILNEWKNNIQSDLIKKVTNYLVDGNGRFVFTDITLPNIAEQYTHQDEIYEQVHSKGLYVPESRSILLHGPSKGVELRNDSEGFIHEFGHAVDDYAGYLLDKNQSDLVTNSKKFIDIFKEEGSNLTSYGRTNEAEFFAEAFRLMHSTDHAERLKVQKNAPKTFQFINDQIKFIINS

[2] = biological target: T1, Lethal factor; assay: Inhibition of Bacillus anthracis Lethal factor after 5 mins by FRET assay

Compound	IC50 [1]	IC50 [2]
Cc1cc(S(=O)(=O)N[C@H](C)C(=O)NO)ccc1F	0.5 µM	1.6 µM
Cc1cc(S(=O)(=O)N(C)[C@H](C)C(=O)NO)ccc1F	9.6 µM	37 µM
Cc1cc(S(=O)(=O)N(Cc2cc(F)cc(F)c2)[C@H](C)C(=O)NO)ccc1F	7 µM	26 µM
Cc1cc(S(=O)(=O)N(Cc2ccc(F)cc2)[C@H](C)C(=O)NO)ccc1F	11 µM	29 µM
Cc1cc(S(=O)(=O)N(Cc2ccccc2F)[C@H](C)C(=O)NO)ccc1F	9.5 µM	33 µM
Cc1cc(S(=O)(=O)N(Cc2c(F)cccc2F)[C@H](C)C(=O)NO)ccc1F	13 µM	42 µM
Cc1cc(S(=O)(=O)N(CCOCc2ccccc2)[C@H](C)C(=O)NO)ccc1F	14 µM	57 µM
Cc1cc(S(=O)(=O)N(Cc2ccc(CNC(=O)OC(C)(C)C)cc2)[C@H](C)C(=O)NO)ccc1F	3.4 µM	15 µM
Cc1cc(S(=O)(=O)N(Cc2ccc(CCNC(=O)OC(C)(C)C)cc2)[C@H](C)C(=O)NO)ccc1F	2.1 µM	6.9 µM
Cc1cc(S(=O)(=O)N(CCCCCCCC(=O)OC(C)(C)C)[C@H](C)C(=O)NO)ccc1F	3.2 µM	8 µM
Cc1cc(S(=O)(=O)N(C(C)C)[C@H](C)C(=O)NO)ccc1F	> 100 µM	> 100 µM
Cc1cc(S(=O)(=O)N(Cc2ccc(N)cc2)[C@H](C)C(=O)NO)ccc1F	6.4 µM	29 µM
Cc1cc(S(=O)(=O)N(Cc2cccc(CN)c2)[C@H](C)C(=O)NO)ccc1F	1.7 µM	10 µM
Cc1cc(S(=O)(=O)N(Cc2ccc(CCN)cc2)[C@H](C)C(=O)NO)ccc1F	1.2 µM	8.9 µM
Cc1cc(S(=O)(=O)N(CCCCCCN)[C@H](C)C(=O)NO)ccc1F	1.1 µM	4.4 µM
Cc1cc(S(=O)(=O)N(CCCCCN)[C@H](C)C(=O)NO)ccc1F	1.3 µM	8.2 µM
Cc1cc(S(=O)(=O)N(CCCCN)[C@H](C)C(=O)NO)ccc1F	1.8 µM	7.4 µM
Cc1cc(S(=O)(=O)N(CCCN)[C@H](C)C(=O)NO)ccc1F	3.7 µM	12 µM
Cc1cc(S(=O)(=O)N(CCCCCCCC(=O)O)[C@H](C)C(=O)NO)ccc1F	47 µM	91 µM
CC(=O)NCc1ccc(CN([C@H](C)C(=O)NO)S(=O)(=O)c2ccc(F)c(C)c2)cc1	3.5 µM	16 µM
CC(=O)NCc1cccc(CN([C@H](C)C(=O)NO)S(=O)(=O)c2ccc(F)c(C)c2)c1	4.7 µM	15 µM
CC(=O)NCCc1ccc(CN([C@H](C)C(=O)NO)S(=O)(=O)c2ccc(F)c(C)c2)cc1	3.2 µM	17 µM
CC(=O)NCCCCCCN([C@H](C)C(=O)NO)S(=O)(=O)c1ccc(F)c(C)c1	3.9 µM	14 µM
CC(=O)NCCCCCN([C@H](C)C(=O)NO)S(=O)(=O)c1ccc(F)c(C)c1	4.3 µM	19 µM
CC(=O)NCCCN([C@H](C)C(=O)NO)S(=O)(=O)c1ccc(F)c(C)c1	30 µM	117 µM
CNC(=O)CCCCCCCN([C@H](C)C(=O)NO)S(=O)(=O)c1ccc(F)c(C)c1	9.3 µM	19 µM
CC(=O)Nc1cccc(CN([C@H](C)C(=O)NO)S(=O)(=O)c2ccc(F)c(C)c2)c1	4.8 µM	21 µM
Cc1cc(S(=O)(=O)N(Cc2ccc(CN)cc2)[C@H](C)C(=O)NO)ccc1F	1.3 µM	5.6 µM
